# Laboratory results published in US20220268782A1, “METHODS FOR PREDICTING AND TREATING CARDIAC DYSFUNCTION” (INSERM (INSTITUT NATIONAL DE LA SANTÉ EAT DE LA RECHERCHE …, priority 2019, published 2022).
# Key:
# C2C12 myoblasts = assay: PA catabolism and Nrf2-antioxidant pathway in C2C12 cells (Pah, tyrosine, 2-SC); assay type: cell-based; settings: data not shown
# Procedure: Cells were washed briefly with ice-cold 1×PBS, scraped in 400 μL T-PER lysis buffer (ThermoFisher) supplemented with 0.1 mM phenylmethylsulphonyl fluoride (PMSF) and protease/phosphatase inhibitor cocktail tablet (ThermoFisher). Pulverised tissue samples (20-30 mg) were lysed in the same buffer accelerated by sonication and passing through a 21 G needle. To pellet any debris, lysates were centrifuged at 10,000 g for 10 minutes at 4° C., with the supernatant transferred to fresh tubes. Protein concentrations were determined with Bradford assay (Biorad) and lysates were diluted to equal concentration with lysis buffer. […]
# C2C12 (ATCC® CRL-1772™) myoblasts maintained in DMEM supplemented with L-glutamine (2 mM), penicillin/streptomycin (1%) and 5% fetal bovine serum (FBS) were seeded either at a density of 5×10^4 cells (<50%) per well in 24-well plates or 10^4 cells in 4-well chamber slides. […] Cells were analysed for oxidative stress with MitoSOX™ (mitochondrial superoxide; 5 μM, ThermoFisher Scientific), CellROX™ (cytosolic superoxide; 5 μM, ThermoFisher Scientific), gene or protein expression, or various metabolites (see below).
# Levels of reduced glutathione (GSH; ThermoFisher), phenylalanine (BioVision) and tyrosine (BioVision) were determined from cells or plasma, with respective agents/kits following the manufacturer's recommendations. […]
# [1] = tested on: Myocardial nitric oxide synthase (NOS); assay: Myocardial nitric oxide synthase activity in hearts of BH4-treated mice; assay type: in vivo; settings: hearts of 12.5-month-old WT mice treated with BH4 or vehicle, FIG. 4i
# Procedure: Myocardial nitric oxide synthase (NOS) activity was determined in hearts of 12.5-month-old WT mice treated with BH4 or vehicle using a commercial kit (Biovision). Briefly, pulverized heart aliquots were processed according to the manufacturer's instructions and fluorometric readouts (excitation: 360, emission: 450) were normalised to protein concentration determined by Bradford assay. Activity of recombinant NOS protein served as positive control.
smiles,measurement,setting,value
"CC(O)C(O)C1CNc2nc(N)[nH]c(=O)c2N1 (stereo not drawn) [BH4, 2-amino-6-(1,2-dihydroxypropyl)-5,6,7,8-tetrahydro-3H-pteridin-4-one]",succination-sensitive Nrf2-antioxidant pathway,C2C12 myoblasts; BH4-dependent succination,activation
same,"PA catabolism: cellular levels of Pah, tyrosine and 2-succinylcysteine (2-SC)",C2C12 myoblasts,increased
same,myocardial nitric oxide synthase activity,[1],without altering
